Test results: patent US11021445B2, “Carboxylic acid derivative as AT2R receptor antagonist” (SHANDONG DANHONG PHARMACEUTICAL CO., LTD., priority 2017, dated 2021)
Values after ≈ are worked out from the molar mass of the structure shown.

Columns and labels:
[1] = Determination of kinetic solubility; assay type: physicochemical; conditions: buffer solution pH 7.4, aqueous buffer, kinetic from dmso stock, pH 7.4, 24 hours at room temperature, theoretical maximum 200 μM
Method: The to-be-tested compound was dissolved in DMSO to prepare a 10 mmol/L stock solution. 980 μL of dissolution medium was pipetted into a 2 mL screw-capped glass vial by using a pipette (Eppendorf Research Company). 20 μL of the stock solution of each test compound and the QC sample were added to a buffer solution corresponding to a kinetic detection solution of pH 7.4. The final concentrations of the test compound and DMSO solution were 200 μM and 2%, respectively. The cover of the medicine bottle was screwed. The theoretical maximum concentration is 200 μM. The mixture was shaken at 880 rpm for 24 hours at room temperature. The vial was centrifuged for 30 minutes at 13,000 rpm. 200 μL of the supernatant was added to a 96-well plate by using a digital pipette. The solubility of the test compound was determined by high performance liquid chromatography, and the experimental results are shown in Table 2.

[2] = Two-way permeability study in Caco-2 cells; assay type: in vitro ADME; conditions: human; for efflux ratio at 120 min: pH 7.4; for Papp A→B at 120 min: pH 7.4, A-B direction; for Papp B→A at 120 min: pH 7.4, B-A direction
Method: The two-way permeability of the to-be-tested compound in Caco-2 cells was measured, and whether the to-be-tested compound was transported by efflux or not was tested.
The compound is dissolved in dimethyl sulfoxide (DMSO) or other suitable solvent to prepare a stock solution of the appropriate concentration.
A suitable internal standard (IS) is dissolved in acetonitrile (ACN) or other organic solvent to be used as a stop solution. The specific information will be described in the research report.
Nadolol, metoprolol, digoxin, estrone 3-sulfate potassium (E3S) and GF120918 were used as a hypotonic control compound, a hypertonic control compound, a P-glycoprotein (P-gp) substrate, a breast cancer resistance protein (BCRP) substrate, and an efflux transporter inhibitor in this study. Stock solutions of these compounds are prepared with DMSO and stored at ≤−30° C., and used within 6 months.
In this study, HBSS (Hanks Balanced Salt Solution) containing 10 mM HEPES (2-[4-(2-hydroxyethyl)-1-piperazine]ethanesulfonic acid) was used as a transport buffer (pH 7.40*0.05).
Caco-2 cells were cultured in an MEM medium (Minimum Essential Media) under the conditions of 37±1° C., 5% CO2 and saturated humidity. The cells were then seeded in a Corning Transwell-96 well plate at a density of 1×10^5 cells/cm^2, and then the cells were placed in a carbon dioxide incubator for culture for 21-28 days for transport experiments. The medium was changed once every 5-6 days during culture.
Compounds were administered at concentrations of 2, 10 and 100 μM and were administered in both directions (A-B and B-A directions) with or without 10 μM GF120918, and there are three parallels for each administration concentration. Digoxin and E3S were tested at the concentration of 10 μM and 5 μM, respectively, and administered bidirectionally with or without 10 μM GF120918. The test concentrations of nadolol and metoprolol were 2 μM, and nadolol and metoprolol were administered unidirectionally (the A-B direction) without 10 μM GF120918. The three control compounds were also made in three parallels.
The administration solution, receiving solution and transport buffer were pre-incubated for 30 minutes at 37° C. The cell layer was rinsed twice with the transport buffer. The administration solution and the receiving solution were separately added to the corresponding cell plate wells (75 μL and 250 μL, respectively, for each of the top and base end wells). After sampling, the cell plates were incubated for 120 minutes in an incubator at 37±1° C., 5% CO2 and saturated humidity.
After all the compounds were subjected to vortex oscillation, the compounds after vortex oscillation were centrifuged at 3220×g, and 20° C. for 20 minutes, the appropriate volume of the supernatant was transferred to a sample analysis plate, and after the plate was sealed, the compounds were stored at 2-8° C. if the compounds were not immediately analyzed. The analysis was carried out by the method of LC/MS/MS, and the specific compound treatment method is shown in the research report.
The Lucifer Yellow Rejection Assay was used to test the integrity of Caco-2 cells. Six cell wells were randomly selected from each cell plate, and 100 μM Lucifer Yellow was added respectively. The Lucifer Yellow Rejection Assay and the transport experiment were performed simultaneously. After 120 minutes of incubation, a Lucifer Yellow sample was taken and the relative fluorescence unit (RFU) of the Lucifer Yellow in the sample was detected at a 425/528 nm (excitation/emission) spectrum.
The concentrations of the to-be-tested compound and the control compounds nadolol, metoprolol, digoxin and E3S in the samples were determined by liquid chromatography-tandem mass spectrometry (LC/MS/MS). The retention time of the analyte and internal standard, chromatogram acquisition and chromatogram integration were processed by using the software Analyst (AB Sciex, Framingham, Mass., USA).

| solubility at 24 h [1] | efflux ratio at 120 min [2] | Papp A→B at 120 min [2] | Papp B→A at 120 min [2] | Compound |
| --- | --- | --- | --- | --- |
| > 200 µM | 32.5 | 0.27 ×10⁻⁶ cm/s | 8.68 ×10⁻⁶ cm/s | COc1ccc2c(c1OCc1ccccc1)C[C@@H](C(=O)O)N(C(=O)[C@@H](OC1CCCC1)c1ccccc1)C2 [Compound 37] |
| 190 µM (≈ 104 µg/mL) |  |  |  | COc1ccc2c(c1OCc1ccccc1)C[C@@H](C(=O)O)N(C(=O)[C@@H](O[C@H]1CC[C@@H](O)CC1)c1ccccc1)C2 [Compound 63] |
| 181 µM (≈ 94.2 µg/mL) | 13.1 | 0.48 ×10⁻⁶ cm/s | 6.24 ×10⁻⁶ cm/s | O=C(O)[C@@H]1Cc2c(ccc(Cl)c2OCc2ccccc2)CN1C(=O)[C@@H](OC1CCCC1)c1ccccc1 [Compound 107] |
|  | 26.3 | 0.67 ×10⁻⁶ cm/s | 17.7 ×10⁻⁶ cm/s | COc1ccc2c(c1OCc1ccccc1)C[C@@H](C(=O)O)N(C(=O)[C@@H](OC1(C)CCCC1)c1ccccc1)C2 [Compound 57] |
| 190 µM (≈ 102 µg/mL) |  |  |  | COc1ccc2c(c1OCc1ccccc1)C[C@@H](C(=O)O)N(C(=O)[C@@H](OC1CC(F)(F)C1)c1ccccc1)C2 [Compound 51] |
| 192 µM (≈ 97.3 µg/mL) |  | 0.11 ×10⁻⁶ cm/s | 6.4 ×10⁻⁶ cm/s | COc1ccc2c(c1OCc1ccccc1)C[C@@H](C(=O)O)N(C(=O)C(c1ccccc1)c1ccccc1)C2 [EMA-401, reference compound] |
